Test results taken from publication PMC11995402 (ACS infectious diseases, 2025).
Entries after “also recorded” stand apart in the source; their conditions may differ. Like-named read-outs stand apart in the source and are kept apart here.

Tests used:
[1] = system: T. muris; assay: adult whipworm whole-worm motility inhibition assay; type: cell-based, Trichuris muris; conditions: for worm motility inhibition, SAR statement (in words): T. muris, 50 μM, 48 h (Figures 3-5); for motility inhibition / worm motility inhibition (in words): adult T. muris; for motility inhibition: 30 μM; for worm motility inhibition (in words): 30 μM (Figure 1)
[2] = system: A. ceylanicum; assay: adult hookworm whole-worm motility inhibition assay; type: cell-based, Ancylostoma ceylanicum; conditions: for worm motility inhibition, SAR statement (in words): A. ceylanicum, 30 μM, 48 h (Figures 3-5); for IC50: motility
[3] = system: HepG2 cells; assay: HepG2 MTT viability assay; conditions: for CC50: read-out: HEPG2 cells CC50 μM (95% CI) 24 h, MTT viability, 24 h
[4] = system: MDR1-MDCK II cells
[5] = in vitro; conditions: dog
[6] = system: MDR1 (P-gp); assay: in vitro; conditions: dog, MDCK-MDR1
[7] = system: CK2α/PI3Kγ; conditions: cited from earlier work
[8] = read-out: T. muris IC50 μM (95% CI) 24 h, motility, 24 h
[9] = read-out: T. muris IC50 μM (95% CI) 48 h, motility, 48 h
[10] = read-out: A. ceylanicum IC50 μM (95% CI) 24 h, 24 h
[11] = read-out: A. ceylanicum IC50 μM (95% CI) 48 h, 48 h

For `CN1CCCN(C(=O)c2cccc(-c3ccc(C=C4C(=O)Nc5ccc(N)cc54)o3)c2)CC1` [Compound 7], the “worm motility inhibition, SAR statement (in words)” value [1] was “complete loss of activity; also recorded: inactive against both species” and the “worm motility inhibition, SAR statement (in words)” value [2] was “not against A. ceylanicum; also recorded: inactive against both species”.
Work on `CC(C)C[C@H]1C(=O)O[C@H](Cc2ccc(N3CCOCC3)cc2)C(=O)N(C)[C@@H](CC(C)C)C(=O)O[C@H](C)C(=O)N(C)[C@@H](CC(C)C)C(=O)O[C@H](Cc2ccc(N3CCOCC3)cc2)C(=O)N(C)[C@@H](CC(C)C)C(=O)O[C@H](C)C(=O)N1C` [emodepside] yielded an IC50 [1, 8] of 0.0143 µM, an IC50 [1, 9] of 0.0345 µM and an IC50 [2, 10] of 0.0033 µM. It also gave an IC50 [2, 11] of 0.0011 µM.
`CCCOc1ccc(/C=C2\SC(=O)NC2=O)cc1` [SMI-16a] showed a motility inhibition ([1]; @48 h (Figure 1B)) of 57%.
For `CN1CCCN(C(=O)c2cccc(-c3ccc(C=C4C(=O)Nc5c(Cl)cccc54)o3)c2)CC1` [Compound 8], the “worm motility inhibition, SAR statement (in words)” value [1] was “neither an increase nor decrease to activity”, the IC50 [1, 8] was 42 µM and the IC50 [1, 9] was over 90 µM. For the same molecule, the “worm motility inhibition, SAR statement (in words)” value [2] was “hookworm selective; also recorded: neither an increase nor decrease to activity”, the IC50 [2, 10] was 40 µM and the IC50 [2, 11] was 21 µM. For the same molecule, the CC50 [3] was 15.5 µM and the “fold increase in cytotoxicity (measured by CC50)” value ([3]; relative to CX-6258) was 2.4 fold.
In the case of `Cc1ccc2c(c1)C(=Cc1ccc(-c3cccc(C(=O)N4CCCN(C)CC4)c3)o1)C(=O)N2` [Compound 10], the “worm motility inhibition, SAR statement (in words)” value [1] is reported as “inactivated the inhibition of both species” and the “worm motility inhibition, SAR statement (in words)” value [2] is reported as “inactivated the inhibition of both species”.
Work on `CCCSc1ccc2nc(NC(=O)OC)[nH]c2c1` [albendazole] yielded an IC50 ([1]; Trichuris muris, 24 h, read-out: T. muris IC50 μM (95% CI) 24 h) of over 300 µM and an IC50 ([1]; Trichuris muris, 48 h, read-out: T. muris IC50 μM (95% CI) 48 h) of over 300 µM.
In the case of `C[C@H](NC(=O)c1c(N)nn2cccnc12)c1cc2cccc(C#Cc3cnn(C)c3)c2c(=O)n1-c1ccccc1` [IPI-549], the “worm motility inhibition (in words)” value [1] is reported as “did not show measurable inhibition of worm motility”.
In the case of `N#Cc1c(-c2ccccc2)cc(-c2cc(Br)ccc2O)[nH]c1=O` [TCS-PIM1], the “worm motility inhibition (in words)” value [1] is reported as “excellent inhibition” and the motility inhibition ([1]; relative to DMSO controls) is reported as 100%.
In the case of ivermectin, the IC50 [1, 8] is reported as over 300 µM and the IC50 [1, 9] is reported as 89.6 µM.
With `CC(C)(C)NCC(O)COc1cccc2c1CC(O)C(O)C2` (stereo not drawn) [nadolol] the “Rank Papp” value ([4]; MDCK-MDR1) was “low”, the recovery ([5]; MDCK-MDR1) was 83.1% and the Papp A→B [6] was 0.05 ×10⁻⁶ cm/s.
For `CN1CCCN(C(=O)c2cccc(-c3ccc(C=C4C(=O)Nc5ccccc54)o3)c2)CC1` [Compound 11], the “worm motility inhibition, SAR statement (in words)” value [1] was “neither an increase nor decrease to activity”, the IC50 [1, 8] was over 90 µM and the IC50 [1, 9] was over 90 µM. The “worm motility inhibition, SAR statement (in words)” value [2] was “neither an increase nor decrease to activity”, the IC50 [2, 10] was 25.2 µM and the IC50 [2, 11] was 8.8 µM. The CC50 [3] was 22.2 µM.
With `COCCc1ccc(OCC(O)CNC(C)C)cc1` (stereo not drawn) [metoprolol] the “Rank Papp” value ([4]; MDCK-MDR1) was “high”, the recovery ([5]; MDCK-MDR1) was 97.4% and the Papp A→B [6] was 25.6 ×10⁻⁶ cm/s.
For `O=C1NC(=O)/C(=C/c2ccc(-c3ccc(F)cc3O)o2)S1` [AS-252424], the “worm motility inhibition (in words)” value [1] is given as “excellent worm motility inhibition”, the “selectivity for PI3Kγ over PI3Kα” value [7] is given as 30 fold and the IC50 ([7]; read-out: IC50 (dual inhibitor of CK2α/PI3Kγ)) is given as 0.03 µM.
For `C[C@H]1O[C@@H](O[C@H]2[C@@H](O)C[C@H](O[C@H]3[C@@H](O)C[C@H](O[C@H]4CC[C@@]5(C)[C@H](CC[C@@H]6[C@@H]5C[C@@H](O)[C@]5(C)[C@@H](C7=CC(=O)OC7)CC[C@]65O)C4)O[C@@H]3C)O[C@@H]2C)C[C@H](O)[C@@H]1O` [digoxin], the “Rank Papp” value ([4]; MDR1-MDCK II cells) was “low”, the recovery ([5]; MDCK-MDR1, mean solution recovery % A to B, MDR1-MDCK II cells) was 77.5% and the recovery ([5]; MDCK-MDR1, mean solution recovery % B to A, MDR1-MDCK II cells) was 92.7%. It also gave a Papp A→B [6] of 0.151 ×10⁻⁶ cm/s, a Papp B→A [6] of 3.43 ×10⁻⁶ cm/s and an efflux ratio [6] of 22.8.
In the case of `Cc1ccc(-c2csc3ncnc(SCCC(=O)O)c23)cc1` [TTP22], the “worm motility inhibition (in words)” value [1] is reported as “did not show measurable inhibition of worm motility”.
With `CN1CCC(CNc2ccc3ncc(-c4cccc(OC(F)(F)F)c4)n3n2)CC1` [SGI-1776] the “worm motility inhibition (in words)” value [1] was “excellent inhibition”.
With `O=C(O)c1ccc2c(c1)nc(Nc1cccc(Cl)c1)c1ccncc12` [CX-4945] the “worm motility inhibition (in words)” value [1] was “did not show measurable inhibition of worm motility”.
For `N[C@@H]1CCCN(c2c(/C=C3\SC(=O)NC3=O)cccc2-c2ccccc2)C1` [AZD1208], the “worm motility inhibition (in words)” value [1] was “inactive”.
`O=C1NC(=O)/C(=C/c2cccc(C(F)(F)F)c2)S1` [SMI-4a] gave a motility inhibition ([1]; @48 h (Figure 1B)) of 71%.
